Results: patent US10899988B1, “Octane hyperboosting in fuel blends” (National Technology & Engineering Solutions of Sandia, LLC, priority 2018, dated 2021)

How the values were obtained:
[1] = Co-optima fuel property database, cited from earlier work; for Water Solubility: measured at 25° C.
[2] = ASTM D3703 test for hydroperoxides (peroxide number); format: physicochemical; conditions: silica column processed sample; testing range 0-50 mg/kg
Procedure: Potential polar contaminants, such as peroxides and hydrates, were removed from the neat prenol sample using a silica column following the protocol outlined by Mueller et al. (see, e.g., Mueller C J et al., “Diesel surrogate fuels for engine testing and chemical-kinetic modeling: compositions and properties,” Energy Fuels 2016; 30:1445-61). RON testing of this sample was conducted to confirm that these contaminants were not affecting the RON measurement. The sample containers were stored at 85% capacity and sealed with parafilm to limit peroxide formation after the silica column treatment; testing was performed within 10 days of the treatment. The peroxide number of the silica column treated sample (sample processed as described above) was tested by the ASTM […] method at SwRI. This method quantified the concentration hydroperoxides in a sample within the range of 0-50 mg/kg (ppm).

O=C1CCCC1 [Cyclopentanone]
DH Vap [1]: 504 kJ/kg | Energy Density [1]: 30.2 mJ/L | Water Solubility [1]: 61 mg/mL

CCO [Ethanol]
DH Vap [1]: 919 kJ/kg | Energy Density [1]: 20.2 mJ/L

CC(C)CO [Isobutanol]
DH Vap [1]: 685 kJ/kg | Energy Density [1]: 26.6 mJ/L

CC(C)O [Isopropanol]
DH Vap [1]: 744 kJ/kg | Energy Density [1]: 24.1 mJ/L

CC(C)=CCO [Prenol, 3-methyl-2-buten-1-ol]
hydroperoxides (ASTM D3703) [2]: non-detect | DH Vap [1]: 512 kJ/kg | Water Solubility [1]: 41 mg/mL

n-propanol
DH Vap [1]: 789 kJ/kg | Energy Density [1]: 24.7 mJ/L
